Experimental findings from ChEMBL document CHEMBL1147352, “Paniceins and related sesquiterpenoids from the Mediterranean sponge Reniera fulva” (1993) are described below.

Bounds are passed on as bounds.

The subject of one assay is NCI-H522. As to the kind of experiment: Cytotoxicity against human NCI-H522 cells. It is filed as functional. To be noted: for GI50: read-out: Log10GI50 (converted); for CC50: read-out: Log10LC50 (converted); for TGI: read-out: Log10TGI (converted).
For a further assay, the system named is CCRF-CEM. As to the kind of experiment: Cytotoxicity against human CCRF-CEM cells. The format is functional. Particulars: for GI50: read-out: Log10GI50 (converted); for TGI: read-out: Log10TGI (converted).

On to `C/C(=C\Cc1cc(O)ccc1O)CCc1c(C)cc(O)c(C=O)c1C` [PANICEIN B3], for which, in the assay with NCI-H522, the GI50 was 10 µM, the CC50 is 55 µM and the TGI is 23.4 µM. In the assay with CCRF-CEM, the GI50 was 4.47 µM and the TGI was 30.2 µM.
Turning to `C/C(=C\Cc1cc(O)ccc1O)CCc1c(C)c(O)c(O)c(C=O)c1C` [PANICEIN C], in the assay on NCI-H522, the GI50 is 5.25 µM, the CC50 was 63.1 µM and the TGI was 21.4 µM. For the same compound, in the assay with CCRF-CEM, the GI50 was 3.31 µM and the TGI is 9.55 µM.
`COc1cc(C)c(CC/C(C)=C/Cc2cc(O)ccc2O)c(C)c1C` [PANICEIN A HYDROQUINONE]: in the assay on CCRF-CEM, the GI50 was 7.76 µM and the TGI was greater than 25.1 µM. The CC50 in the assay on CCRF-CEM (read-out: Log10LC50 (converted)) is greater than 25.1 µM.
